pIC50: −log10 of the molar value.
Target: T1, Polyphenol oxidase 2 (Agaricus bisporus, UniProt O42713)
T1 sequence (O42713 whole entry): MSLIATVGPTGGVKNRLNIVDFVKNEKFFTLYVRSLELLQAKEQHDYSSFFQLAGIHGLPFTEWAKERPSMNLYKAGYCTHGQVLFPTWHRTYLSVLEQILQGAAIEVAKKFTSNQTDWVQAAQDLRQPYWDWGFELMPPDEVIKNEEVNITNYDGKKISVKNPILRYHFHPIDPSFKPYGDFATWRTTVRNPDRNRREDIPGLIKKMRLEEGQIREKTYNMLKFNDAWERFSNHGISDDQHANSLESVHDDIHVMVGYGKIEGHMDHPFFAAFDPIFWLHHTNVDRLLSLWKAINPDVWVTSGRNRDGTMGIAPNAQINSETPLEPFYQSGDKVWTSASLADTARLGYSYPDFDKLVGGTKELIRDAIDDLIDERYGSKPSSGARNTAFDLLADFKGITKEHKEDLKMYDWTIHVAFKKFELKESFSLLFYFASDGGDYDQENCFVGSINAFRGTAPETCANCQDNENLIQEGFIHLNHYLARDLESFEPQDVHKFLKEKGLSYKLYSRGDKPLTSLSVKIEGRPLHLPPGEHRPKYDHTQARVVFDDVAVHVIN
Assay: Inhibition of mushroom tyrosinase

SMILES	pIC50
O=NCc1ccc(O[C@@H]2O[C@H](CO)[C@@H](O)[C@H](O)[C@H]2O)cc1	< 3.70
CC(=O)OC[C@H]1O[C@@H](Oc2ccc(CN=O)cc2)[C@H](OC(C)=O)[C@H](OC(C)=O)[C@@H]1OC(C)=O [(2R,3R,4R,5R,6S)-2-(acetoxymethyl)-6-(4-((hydroxyimino)methyl)phenoxy)tetrahydro-2H-pyran-3,4,5-triyl triacetate]	< 3.70
CC(=O)OC[C@H]1O[C@@H](Oc2ccc(CN=O)cc2)[C@H](OC(C)=O)[C@@H](OC(C)=O)[C@H]1OC(C)=O [(2R,3S,4S,5R,6S)-2-(acetoxymethyl)-6-(4-((hydroxyimino)methyl)phenoxy)tetrahydro-2H-pyran-3,4,5-triyl triacetate]	< 3.70
CC(=O)OC[C@H]1O[C@@H](O[C@H]2[C@H](OC(C)=O)[C@@H](OC(C)=O)[C@H](Oc3ccc(CN=O)cc3)O[C@@H]2COC(C)=O)[C@H](OC(C)=O)[C@@H](OC(C)=O)[C@H]1OC(C)=O [(2R,3S,4S,5R,6S)-2-(acetoxymethyl)-6-((2R,3R,4S,5R,6S)-4,5-diacetoxy-2-(acetoxymethyl)-6-(4-((hydroxyimino)methyl)phenoxy)tetrahydro-2H-pyran-3-yloxy)tetrahydro-2H-pyran-3,4,5-triyl triacetate]	< 3.70

More lines, now with the values ahead:

pIC50	SMILES
< 3.70	CC(=O)OC[C@H]1O[C@@H](Oc2ccc(CN=O)cc2)[C@H](OC(C)=O)[C@@H](OC(C)=O)[C@@H]1OC(C)=O
< 3.70	O=NCc1ccc(O[C@@H]2O[C@H](CO)[C@@H](O)[C@@H](O)[C@H]2O)cc1 [4-((2S,3R,4R,5S,6R)-3,4,5-trihydroxy-6-(hydroxymethyl)tetrahydro-2H-pyran-2-yloxy)benzaldehyde oxime]
< 3.70	O=NCc1ccc(O[C@@H]2O[C@H](COC(=O)c3ccccc3)[C@@H](OC(=O)c3ccccc3)[C@@H](OC(=O)c3ccccc3)[C@H]2OC(=O)c2ccccc2)cc1 [(2R,3R,4R,5R,6S)-2-(benzoyloxymethyl)-6-(4-((hydroxyimino)methyl)phenoxy)tetrahydro-2H-pyran-3,4,5-triyl tribenzoate]
< 3.70	O=NCc1ccc(O[C@@H]2OC[C@@H](OC(=O)c3ccccc3)[C@H](OC(=O)c3ccccc3)[C@H]2OC(=O)c2ccccc2)cc1 [(2S,3R,4S,5R)-2-(4-((hydroxyimino)methyl)phenoxy)tetrahydro-2H-pyran-3,4,5-triyl tribenzoate]

From BindingDB's records for doi:10.1016/j.bmcl.2009.09.018 (Sun Yat-Sen University, 2009)
